BindingDB's records for doi:10.1107/S0907444905022638 (University of California San Francisco, 2005)
pKi: −log10 of the molar value.

Legend:
Assay in all cases: Thymidylate Synthase (TS) Assay
Settings in all cases: pH 7.4; 20 °C
Thymidylate synthase [1] = target: T1, Thymidylate synthase (Cryptococcus neoformans var. neoformans serotype D (strain B-3501A), UniProt P0CS13)
T1 sequence (P0CS13 whole entry): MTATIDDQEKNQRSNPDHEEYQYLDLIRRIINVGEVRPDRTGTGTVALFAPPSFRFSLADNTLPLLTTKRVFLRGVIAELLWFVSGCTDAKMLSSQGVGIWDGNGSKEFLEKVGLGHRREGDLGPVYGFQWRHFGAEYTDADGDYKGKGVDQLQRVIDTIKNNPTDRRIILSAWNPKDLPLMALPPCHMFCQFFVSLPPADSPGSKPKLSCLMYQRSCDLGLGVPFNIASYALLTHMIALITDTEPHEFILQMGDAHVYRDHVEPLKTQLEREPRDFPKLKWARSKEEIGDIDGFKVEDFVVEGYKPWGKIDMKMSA
Description: (§1) TS was assayed spectrophotometrically in the reaction buffer solution containing (6R, 6S)-5, 10-CH2H4folate. The reaction was initiated by the addition of an amount of enzyme yielding a change in absorbance at 340 nm of 0.016/min in the absence of inhibitor. Ki values were obtained from the linear least-squares fit of the residual activity as a function of inhibitor concentration, using suitable equations for competitive inhibition.

Thymidylate synthase [2] = target: Thymidylate synthase (Escherichia coli (strain K12), UniProt P0A884)
Description: as §1

Thymidylate synthase [3] = target: Thymidylate synthase (Homo sapiens, UniProt P04818)
Description: as §1

Thymidylate synthase [4] = target: T2, Thymidylate synthase (Lacticaseibacillus casei, UniProt P00469)
T2 sequence (P00469 whole entry): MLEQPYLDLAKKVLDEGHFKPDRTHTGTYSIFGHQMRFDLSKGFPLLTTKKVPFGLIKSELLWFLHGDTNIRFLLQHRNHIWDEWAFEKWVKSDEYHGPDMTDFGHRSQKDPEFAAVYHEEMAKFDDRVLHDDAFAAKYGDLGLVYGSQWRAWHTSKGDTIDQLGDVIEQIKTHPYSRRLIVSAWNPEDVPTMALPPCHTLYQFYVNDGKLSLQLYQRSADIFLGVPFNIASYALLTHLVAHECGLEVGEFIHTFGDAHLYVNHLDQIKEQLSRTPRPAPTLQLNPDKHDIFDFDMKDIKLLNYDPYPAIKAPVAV
Description: as §1

Thymidylate synthase [5] = target: T3, Thymidylate synthase (Pneumocystis carinii, UniProt P13100)
T3 sequence (P13100 whole entry): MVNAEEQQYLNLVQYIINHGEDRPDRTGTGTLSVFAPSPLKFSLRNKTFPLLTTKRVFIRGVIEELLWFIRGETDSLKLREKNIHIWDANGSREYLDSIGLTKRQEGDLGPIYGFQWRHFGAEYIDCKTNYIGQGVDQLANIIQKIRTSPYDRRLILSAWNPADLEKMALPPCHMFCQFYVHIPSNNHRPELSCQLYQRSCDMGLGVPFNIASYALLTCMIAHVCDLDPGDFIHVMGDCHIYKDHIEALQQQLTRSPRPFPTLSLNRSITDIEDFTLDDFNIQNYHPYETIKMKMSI
Description: as §1

Thymidylate synthase (Escherichia coli (strain K12), UniProt P0A884), sequence (P0A884 whole entry): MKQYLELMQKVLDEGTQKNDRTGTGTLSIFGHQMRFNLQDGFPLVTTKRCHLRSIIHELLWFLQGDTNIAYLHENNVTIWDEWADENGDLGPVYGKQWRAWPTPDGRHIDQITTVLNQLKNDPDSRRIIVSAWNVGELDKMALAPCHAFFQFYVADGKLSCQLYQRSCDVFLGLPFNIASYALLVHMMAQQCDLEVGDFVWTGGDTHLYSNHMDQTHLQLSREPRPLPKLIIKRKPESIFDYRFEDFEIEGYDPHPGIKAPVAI
Thymidylate synthase (Homo sapiens, UniProt P04818), sequence (P04818 whole entry): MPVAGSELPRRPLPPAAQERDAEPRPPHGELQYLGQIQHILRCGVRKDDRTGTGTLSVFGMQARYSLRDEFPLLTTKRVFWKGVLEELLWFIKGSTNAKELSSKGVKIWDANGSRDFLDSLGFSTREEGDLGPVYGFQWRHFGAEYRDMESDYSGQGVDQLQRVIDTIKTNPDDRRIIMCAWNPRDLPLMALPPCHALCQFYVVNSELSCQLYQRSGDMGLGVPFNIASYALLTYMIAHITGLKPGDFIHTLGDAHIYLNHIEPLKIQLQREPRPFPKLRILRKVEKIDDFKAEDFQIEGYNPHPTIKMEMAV

pKi (Thymidylate synthase [1]): 5.39 | pKi (Thymidylate synthase [2]): 5.39 | pKi (Thymidylate synthase [3]): < 3.61 | pKi (Thymidylate synthase [4]): 6.10 | pKi (Thymidylate synthase [5]): 4.55
Compound: O=C1OC(c2ccc(O)c(Br)c2)(c2ccc(O)c(Br)c2)c2cccc3c(Cl)ccc1c23 [4,4-bis(3-bromo-4-hydroxyphenyl)-10-chloro-3-oxatricyclo[7.3.1.0^{5,13}]trideca-1(12),5(13),6,8,10-pentaen-2-one]
